Patent US7238469B2, “Carbon monoxide improves outcomes in tissue and organ transplants and suppresses apoptosis” (priority 2001, dated 2007)
“And” between values parts separate entries of the source, which are not always exact repeats. Equal entries are not always repeated. Structures can show the parent of a compound that is named as a salt. Residues, ends and D or L forms follow the SMILES beside them.

Tests used:
βTC3 cells = assay: TNF-α mediated apoptosis of β-gal transfected βTC3 cells (percentage of viable cells); format: cell-based, murine; details: for inhibition of TNF-α mediated apoptosis: TNF-α 24 hours, inhibitor added two hours before TNF-α (Z-DEVD-FMK 10 μM, IETD-CHO 1 μM)
Protocol: The murine insulinoma cell line βTC3 (DSMZ, Braunschweig, Germany) was cultured in Dulbecco's Modified Eagle's Medium (DMEM) (Life Technologies, Grand Island, N.Y., USA) supplemented with 2 mM L-glutamine, 100 U/ml penicillin G, 100 U/ml streptomycin and 10% Fetal Calf Serum (FCS) (Life Technologies) and incubated in humidified 5% CO2/95% air at 37° C. This murine β-cell line, derived from transgenic mice carrying a hybrid insulin-promoter simian virus 40 tumor antigen, is known to maintain the features of differentiated β-cells for about 50 passages in culture. […] Compared to other frequently used transformed β-cell lines such as RIN-m5F and HIT, levels of secreted insulin are closer to normal β-cells in the βTC3 cell line. Thus, these cells are useful for studying β-cell regulation and gene expression (D'Ambra et al., Endocrinology 726:2815–22, 1990).
βTC3 were seeded at 3×10^5 cells in 16 mm wells and transfected 15 to 20 hours later using Lipofectamine plus™ reagents (Life Technologies) according to the manufacturer's instructions. Total DNA was maintained constant using empty pcDNA3 vector. The percentage of viable cells was assessed by normalizing the percentage of viable cells of each DNA preparation to the number of control-transfected cells without the apoptotic stimulus (100% viability) (Soares et al., Nature Med. 4:1073–1077, 1998; Sato et al., J. Immunol. 166:4185–4194, 2001).
Murine recombinant TNF-α (R&D Systems) was dissolved in PBS with 1% bovine serum albumin and added to the culture medium (17.5 ng/ml=500 U) 24 hours after transfection. The caspase-3 inhibitor Z-DEVD-FMK and the caspase-8 inhibitor IETD-CHO (Calbiochem, San Diego, Calif.) were dissolved in dimethyl sulphoxide (DMSO, Sigma) and added to the culture medium (10 μM and 1 μM respectively) two hours before treatment with TNF-α. Tin protoporphyrin (SnPPIX) (Porphyrin Products, Logan, Utah) was dissolved (10 mM) in 100 mM NaOH and added 6 hours after transfection to the culture medium (50 μM). The guanylyl cyclase inhibitor 1H[1,2,4]oxadiazolo[4,3-α]quinoxalin-1 (ODQ; Calbiochem) was dissolved in DMSO and added to the culture medium (100 μM) 6 hours after transfection. The cGMP analogue 8-bromoguanosine-3′-5′-cyclic-monophosphate (8-Br-cGMP) (Sigma) was dissolved in water and added to the culture medium (10 μM) 30 minutes before induction of apoptosis. The protein kinase G inhibitor KT5823 (Calbiochem) was dissolved in DMSO and added to the culture medium (1.6 μM) 6 hours after transfection.
Cells and islets were exposed to 1% carbon monoxide in compressed air balanced with 5% CO2, as described elsewhere (see, e.g., Otterbein et al., Nature Med. 6:422–428, 2000). Islets were incubated in RPMI medium pre-saturated with carbon monoxide (4° C. overnight, 1% CO, 5% CO2) for two hours at 37° C. while treatment with 1% CO, 5% CO2 was continued.

2F–2B ECs = format: cell-based, murine
Protocol: The murine 2F–2B endothelial cell line (ATCC) was transiently transfected as described elsewhere (Soares et al., Nature Med. 4:1073, 1998; Brouard et al, J. Exp. Med. 192:1015, 2000). All experiments were conducted 24–48 h after transfection. é-galactosidase-transfected cells were detected as described elsewhere (Soares et al., Nature Med. 4:1073, 1998; Brouard et al., J. Exp. Med. 192:1015, 2000). Percentage of viable cells was assessed by evaluating the number of é-galactosidase-expressing cells that retained normal morphology as described elsewhere (Soares et al., Nature Med. 4:1073, 1998; Brouard et al., J. Exp. Med. 192:1015, 2000). The number of random fields counted was determined to have a minimum of 200 viable transfected cells per control well. The percentage of viable cells was normalized for each DNA preparation to the number of transfected cells counted in the absence of the apoptosis-inducing agent (100% viability). All experiments were performed at least three times in duplicate. Actinomycin D (Act. D; Sigma) was dissolved in PBS and added to the culture medium (10 îg/ml) 24 h after transfection. SnPPIX (Porphyrin Products) was dissolved (10 îM) in 100 mM NaOH and conserved at −20° C. until used. SNPPIX was added to the culture medium (50 îM) 6 h after transfection. Human recombinant TNF-α (R&D Systems, Minneapolis, Minn.) was dissolved in PBS, 1% BSA, and added to the culture medium (10–100 ng/ml) 24 h after transfection.
Cells were exposed to compressed air or varying concentration of CO (250 and 10,000 ppm), as described elsewhere (Otterbein et al., Nature Med. 6:422, 2000; and Brouard et al., J. Exp. Med. 192:1015, 2000).
BAECs and 2F–2B ECs were transiently transfected. All experiments were carried out 24–48 h after transfection. The percentage of viable cells was assessed by evaluating the number of β-galactosidase-expressing cells that retained normal morphology. The number of random fields counted was determined to have a minimum of 200 viable transfected cells per control well. The percentage of viable cells was normalized for each DNA preparation to the number of transfected cells counted in the absence of the apoptosis-inducing agent (100% viability). All experiments were performed at least three times in duplicate.
Actinomycin D (Act.D; Sigma-Aldrich) was dissolved in PBS and added to the culture medium 24 h after transfection. The Act.D concentration used corresponded to the optimal concentration necessary to sensitize ECs to TNF-α mediated apoptosis, e.g., 10 μg/ml for 2F–2B ECs and 0.1 μg/ml for BAECs. When indicated, EC apoptosis was induced by etoposide (200 μM, 8 h; Calbiochem-Novabiochem) or by serum deprivation (0.1% FCS for 24 h). The iron chelator deferoxamine mesylate (DFO; Sigma-Aldrich) was dissolved in water and added to culture medium (1–100 μM) 1 h before the induction of apoptosis. Hemoglobin (Hb; Sigma-Aldrich) was dissolved (1 mM) in PBS, 10 mM Na2S2O4, dialyzed against PBS (2 h, 4° C., 1:800 dilution), and added to the culture medium (1–100 μM) 6 h after transfection. The guanylcyclase inhibitor 1H(1,2,4)oxadiazolo(4,3)quinoxalin-1 (ODQ; Calbiochem-Novabiochem) was dissolved in DMSO (Sigma-Aldrich) and added to the culture medium (10–100 μM) 6 h after transfection. Iron protoporphyrin ([FePP]/heme), cobalt protoporphyrin (CoPPIX), and tin protoporphyrin (SnPPIX; all from Porphyrin Products, Inc.) were dissolved (10 mM) in 100 mM NaOH and held at −20° C. until use. Metalloporphyrins were added to the culture medium (50 μM) 6 h after transfection. The cGMP analogue 8-bromo-cGMP sodium salt (8-Br-cGMP; Sigma-Aldrich) was dissolved in water and added to the culture medium (10–100 µM) 30 min before the induction of apoptosis. Human recombinant TNF- (R&D Systems) was dissolved in PBS and 1% BSA, and added to the culture medium (10–100 ng/ml) 24 h after transfection.
Cells were exposed to compressed air from a compressed air tank or varying concentrations of CO (250 and 10,000 ppm).

[1] = tested on: rat platelets overlaid on mouse 2F–2B endothelial cells; assay: Platelet aggregation assay, platelets overlaid on pretreated endothelial cells; format: cell-based; details: endothelial cells pretreated with protoporphyrin 50 μM; ADP 2 μM
Protocol: Mouse 2F–2B endothelial cells were cultured on 0.2% gelatin (Sigma) coated six-well plates in 88% DMEM (Life Technologies), 10% FCS (FCS), 100 U/ml penicillin, and 100 îg/ml streptomycin (Life Technologies). Confluent endothelial cells either were left untreated or were treated with the HO-inducing agent CoPPIX (50 îM; 18 h), the HO inhibitor SnPPIX (50 îM, 18 h), or both CoPPIX (50 îM, 15 h) and SnPPIX (50 îM, 3 h). Platelet-rich plasma was obtained by centrifugation (290-g, 12 min, 19° C.) of normal rat […] in 3.8% sodium citrate. Rat platelets (3–10^8 cells ml) were resuspended in HT buffer (8.9 mM NaHCO3, 0.8 mM KH2PO, 5.6 mM dextrose, 2.8 mM KCl solution, 0.8 mM MgCl2, 129 mM NaCl, 10 mM HEPES). Platelets were overlaid (5 min; 37° C.) on mouse endothelial cells, and platelet aggregation assays were conducted as described before (Kaczmarek et al, J. Biol. Chem. 271:33116, 1996) by using an aggregometer (Chrono-Log, Harestown, Pa.) and ADP (0.5–4 μM) as an agonist.

HO-1 = assay: Western blot of HO-1 expression in cultured endothelial cells; format: cell-based, mouse; details: data not shown
Protocol: Endothelial cells were washed in PBS (pH 7.2), harvested by scraping, and lysed in Laemmli buffer. Electrophoresis was conducted under denaturing conditions with 10% polyacrylamide gels. Proteins were transferred onto a polyvinyldifluoridine membrane (immobilon P; Millipore, Bedford, Mass.) by electroblotting and detected with rabbit polyclonal Abs directed against human HO-1 or HO-2 (StressGen, Victoria, Canada) or é-tubulin (Boehringer Mannheim, Mannheim, Germany). Proteins were visualized by using HRP-conjugated donkey anti-rabbit IgG or goat anti-mouse IgG (Pierce) and the ECL assay (Amersham Life Science, Arlington Heights, Ill.) according to manufacturer's instructions.

islet cell grafts = assay: Islet graft survival after induction of HO-1 by CoPP in donors and recipients; format: in vivo, mouse; details: 350–400 islets; for Rejection day: individual recipients
Protocol: Whether induction of HO-1 in donors and recipients would protect islet cell grafts was investigated. The following procedures were utilized to generate the data illustrated in Table 1, below. A mouse model was utilized for the experiments. Donors of islet cells were treated with cobalt protoporphyrin (CoPP) (20 mg/kg) once per day before islet cell isolation. Recipients of islet cell grafts were treated with CoPP (20 mg/kg) once per day on days 1, 3, 5, 7 or with CoPP (10 mg/kg) once per day on days 1, 3, 5, 7, 9, 11, 13, 15, and 17. Treatment with CoPP induces expression of heme oxygenase-1 (HO-1).
Listed under “rejection day” are the days to which islets survived. For instance, “>51×2”, means that islets in 2 recipients were still surviving after 51 days. The mean date of rejection is shown in the fourth column.

`COC(=O)[C@@]1(OC)C[C@H]2O[C@]1(C)n1c3ccccc3c3c4c(c5c6ccccc6n2c5c31)C(=O)N(C)C4` [KT5823] was tested, and the “effect on the anti-apoptotic effect of exogenous CO” value (βTC3 cells; TNF-α, 1% CO, ODQ 100 μM, KT5823 1.6 μM) was “suppressed the anti-apoptotic effect of exogenous carbon monoxide”.

`CC(=O)N(O)CCCCCNC(=O)CCC(=O)N(O)CCCCCNC(=O)CCC(=O)N(O)CCCCCN` [DFO, deferoxamine mesylate] was tested, and the “effect on EC apoptosis when HO-1 activity was inhibited by SnPPIX or the action of CO suppressed by Hb” value (2F–2B ECs; DFO) was “still able to prevent EC apoptosis”, the “effect on EC apoptosis under inhibition of HO activity by SnPPIX” value (2F–2B ECs; DFO 100 μM alone) was “suppressed EC apoptosis, but to a lesser extent than HO-1” and the “effect on EC apoptosis induced by TNF-α plus Act.D” value (2F–2B ECs; DFO 1–100 μM) was “suppressed”.

`COC(=O)CC[C@H](NC(=O)[C@H](CC(=O)OC)NC(=O)OCc1ccccc1)C(=O)N[C@H](C(=O)N[C@@H](CC(=O)OC)C(=O)CF)C(C)C` [Z-DEVD-FMK] was tested, and the “inhibition of TNF-α mediated apoptosis” value (βTC3 cells) was 53%.

In the case of `CC[C@H](C)[C@H](NC(C)=O)C(=O)N[C@@H](CCC(=O)O)C(=O)N[C@H](C(=O)N[C@H](C=O)CC(=O)O)[C@@H](C)O` [IETD-CHO] (Ac-IETD-aldehyde), the “inhibition of TNF-α mediated apoptosis” value (βTC3 cells) is reported as 96%.

In the case of `C[S+]([O-])c1ccc(-c2nc(-c3ccncc3)c(-c3ccc(F)cc3)[nH]2)cc1` (stereo not shown) [SB203580], the “effect on the antiapoptotic action of HO-1” value (2F–2B ECs; SB203580 10–20 μM, dose dependent) is reported as “antiapoptotic action of HO-1 is suppressed”.

With `C=CC1=C(C)c2cc3[n-]c(cc4nc(cc5[n-]c(cc1n2)c(C)c5CCC(=O)[O-])C(CCC(=O)[O-])=C4C)c(C)c3C=C.[Co+2].[H+].[H+]` [CoPP, cobalt protoporphyrin] the “platelet aggregation on stimulation by ADP” value [1] was “platelet aggregation was significantly inhibited”, the “expression of HO-1 in cultured endothelial cells” value (HO-1) was “up-regulated the expression of HO-1” and the “effect of protoporphyrin on the antiapoptotic effect of HO-1” value (2F–2B ECs; HO-1 transfected ECs, protoporphyrin 50 μM) was “did not suppress the antiapoptotic effect of HO-1 or that of bcl-2”. For the same molecule, the “Rejection day Mean ± SD” value (islet cell grafts; CoPP 10 mg/kg × 10) was 40.5 ± 12.12 days, the Rejection/Total (islet cell grafts; CoPP 10 mg/kg × 10) was 2/4 and the Rejection day (islet cell grafts; CoPP 10 mg/kg × 10) was over 51 days. For the same molecule, the “Rejection day Mean ± SD” value (islet cell grafts; CoPP 20 mg/kg × 5) was 44.85 ± 17.81 days, the Rejection/Total (islet cell grafts; CoPP 20 mg/kg × 5) was 4/7 and the Rejection day (islet cell grafts; CoPP 20 mg/kg × 5) was >58 × 2, day and >67 × 1 day.
